# Data reported in patent US8367710B2, “Bicyclo-substituted pyrazolon azo derivatives, preparation process and pharmaceutical use thereof” (Jiangsu Hengrui Medicine Co. Ltd., priority 2008, dated 2013).
# Tests used:
# [1] = molecular target: T1, human TPO receptor (Homo sapiens, UniProt P40238); assay: pro-proliferation effect on BAF3-TPOR cell (CCK-8); type: cell-based, mouse; settings: BAF3-TPOR cells, proliferation relative to rhTPO positive control
# T1 sequence (P40238 26-635): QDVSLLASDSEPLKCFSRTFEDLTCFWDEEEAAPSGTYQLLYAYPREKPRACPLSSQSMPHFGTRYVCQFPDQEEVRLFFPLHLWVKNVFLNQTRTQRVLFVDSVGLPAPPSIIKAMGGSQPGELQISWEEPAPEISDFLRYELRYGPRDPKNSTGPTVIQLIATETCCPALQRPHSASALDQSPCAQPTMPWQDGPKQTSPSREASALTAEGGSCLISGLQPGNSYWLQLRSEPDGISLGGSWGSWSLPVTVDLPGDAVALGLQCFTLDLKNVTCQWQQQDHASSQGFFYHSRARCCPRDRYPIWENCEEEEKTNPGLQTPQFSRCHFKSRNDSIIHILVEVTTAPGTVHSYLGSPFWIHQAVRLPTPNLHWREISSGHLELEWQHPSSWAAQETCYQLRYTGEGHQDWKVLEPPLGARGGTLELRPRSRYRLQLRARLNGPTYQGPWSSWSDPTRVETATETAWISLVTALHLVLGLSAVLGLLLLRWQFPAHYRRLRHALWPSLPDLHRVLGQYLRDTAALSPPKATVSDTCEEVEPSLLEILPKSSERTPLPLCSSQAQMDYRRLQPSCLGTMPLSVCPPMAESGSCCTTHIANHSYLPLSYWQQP
# Protocol: The sequence of primers which contains multi-sites mutation was designed as follows: […]
# The E. coli DH5α competent cell was transformed with mutated plasmid, and positive colonies were picked up through ampicillin selection.
# (2) BAF3-TPOR stable transfected cell line: the following method was used to construct the BaF3 cell which stably over-expressed functional human TPO receptor. […] The stable transfected cells BAF3-TPOR were selected with G418 (Gibco, US), then incubated with RPMI1640 medium plus 10% FBS (Gibco, US), […] G418, 5 ng/mL, rmIL-3 (Chemicon, US).
# (1) Washing cells by centrifugation: a suitable amount of cell suspension was centrifuged at 1000 rpm for 5 minutes, and the supernatant was discarded. 10 mL of cell culture media without containing IL-3 was added. Then the resulting cell suspension was centrifuged at 1000 rpm for 5 minutes, and the supernatant was discarded.
# (2) 1 mL of cell culture media without containing IL-3 was added to beat upon them to equality, and the number of a suitable amount of cell suspension was counted after dilution.
# (3) According to the result of the cell counting, a cell suspension in a concentration of 100,000 cell/mL was prepared.
# (4) 100 μL of cell suspension was transferred to each well of 96-well culture plate, and there were 3 parallel wells, that is, there were a blank control group (B), a negative control group (N), a positive control group of TPO (P) and a test compound group (S).
# (5) The test compound was dissolved in DMSO to prepare a 10 mM stock solution, and then the solution was diluted with RPMI 1640 medium into a series of test samples at different concentration: 30 μM, 10 μM, 3 μM, 1 μM, 0.3 μM, 0.1 μM, 0.03 μM, 0.01 μM, 0.003 μM, 0.001 μM.
# (6) 10 μL of test compound solution was transferred to each well respectively; 1 μL of rhTPO (10 μg/mL) was added to positive control well.
# (7) The plates were incubated in an incubator at 5% CO2 and 37° C. for 24 hours.
# (9) OD value was detected at 450 nm by VICTOR3 (Perkin Elmer 1420-120) plate reader.
# (1) The proliferation rate was calculated as follows: Rate=[(S−B)/(P−B)]*100%
# S: OD value of wells which contains test compound.
# B: OD value of blank control wells
# P: OD value of positive control wells
# (2) The EC50 value was calculated by Origin 7.0 software.
# [2] = Pharmacokinetics assay in rats after intragastric administration; type: in vivo; settings: both sexes, Sprague-Dawley, rat, plasma, po, SD rats, 5 mg/Kg; for Vd/F: read-out: Apparent Distribution Volume Vz/F; for CL/F: read-out: Clearance CL/F (converted); for AUC: read-out: Curve Area AUC; for half-life: read-out: Half-Life t½ (converted); for MRT: read-out: Mean Residence Time MRT; for Cmax: read-out: Plasma Conc. Cmax
# Protocol: Test Example 1: Pharmacokinetics assay of the compounds of the present disclosure
# The pharmacokinetics of the compounds of the present disclosure was studied and evaluated in rats.
# The test compound was diluted with 1% sodium carboxymethyl cellulose to 0.5 mg/mL (calculated as the free acid form) of suspension before use.
# 24 healthy adult SD rats, male and female in half, were divided into […]. After an overnight fast, the rats were administered intragastrically at a dose of 5.0 mg/kg (calculated as the free acid form), at a volume of 10 mL/kg.
# 24 healthy adult SD rats, male and female in half, were administered intragastrically at a dose of 5.0 mg/kg after an overnight fast. Blood samples (0.2 mL) were taken from eye socket at pre administration and at 0.5, 1.0, 2.0, 3.0, 4.0, 5.0, 6.0, 8.0, 11.0, 14.0, 24.0, 36.0 and 48.0 hours post administration, which were stored in heparinized tubes and centrifuged for 10 minutes at 3,500 rpm. The plasma samples were stored at −20° C. until analysis.
# 50 μL of rat plasma, obtained at various time points after administration, 20 μL of internal standard solution and 20 μL of a solvent mixture of methanol and water (80:20, v/v) were mixed well, and then 150 μL of methanol was added to result in protein precipitation. Then the mixture was mixed for 1 minute using a vortexer and centrifuged for 10 minutes at 13,000 rpm. 20 μL of the supernatant was analyzed by LC/MS/MS.
# 50 μL of blank plasma was spiked with a series of standard solutions to produce final concentrations of 1.0, 5.0, 25.0, 50.0, 100.0, 250.0, 500.0 ng/mL, followed by addition of 20 μL of internal standard solution, which was treated according to plasma sample pretreatment protocol. A typical calibration curve equation was obtained with plasma concentration as the abscissa and the chromatographic peak area ratio of sample to internal standard as the ordinate, using weighted least squares method (w=1/x^2) for linear regression.
# The compartmental model of pharmacokinetics was fitted for the test compounds and the major pharmacokinetic parameters were calculated in which Cmax and tmax were the actually measured values.
smiles,measurement,setting,value
"CC1=NN(c2ccc3c(c2)CCC3)C(=O)/C1=N\Nc1cc(C)cc(-c2cccc(C(=O)O)c2)c1O [Example 29, 2′-Hydroxy-3′-[N′-(1-indan-5-yl-3-methyl-5-oxo-1,5-dihydro-pyrazol-4-ylidene)-hydrazino]-5′-methyl-biphenyl-3-carboxylic acid]",EC50,[1],124 nM
same,Vd/F,[2],0.77 ± 0.39 L/kg
same,CL/F,[2],2.33 mL/min/kg
same,AUC,[2],44800 ± 19400 ng·h/mL
same,half-life,[2],4.01 ± 0.63 h
same,MRT,[2],4.29 ± 0.8 h
same,Cmax,[2],13000 ± 5960 ng/mL
"CC1=NN(c2ccc3c(c2)CC3)C(=O)/C1=N\Nc1cccc(-c2ccc(C(=O)O)o2)c1O [Example 22, 5-{3-[N′-(1-Bicyclo[4.2.0]octa-1(6),2,4-trien-3-yl-3-methyl-5-oxo-1,5-dihydro-pyrazol-4-ylidene)-hydrazino]-2-hydroxy-phenyl}-furan-2-carboxylic acid]",EC50,[1],15 nM
"CC1=NN(c2ccc3c(c2)CC(C)(C)C3)C(=O)/C1=N\Nc1cccc(-c2cccc(C(=O)O)c2)c1O [Example 56, 3′-{N′-[1-(2,2-Dimethyl-indan-5-yl)-3-methyl-5-oxo-1,5-dihydro-pyrazol-4-ylidene]-hydrazino}-2′-hydroxy-biphenyl-3-carboxylic acid]",EC50,[1],60 nM
"CC1=NN(c2ccc3c(c2)CCCC3)C(=O)/C1=N\Nc1cc(F)cc(-c2cccc(C(=O)O)c2)c1O [Example 4, 5′-Fluoro-2′-hydroxy-3′-{N′-[3-methyl-5-oxo-1-(5,6,7,8-tetrahydro-naphthalen-2-yl)-1,5-dihydro-pyrazol-4-ylidene]-hydrazino}-biphenyl-3-carboxylic acid]",EC50,[1],283 nM
"CC1=NN(c2ccc3c(c2)CCCC3)C(=O)/C1=N\Nc1cccc(-c2cccc(C(=O)O)c2)c1O [Example 3, 2′-Hydroxy-3′-{N′-[3-methyl-5-oxo-1-(5,6,7,8-tetrahydro-naphthalen-2-yl)-1,5-dihydro-pyrazol-4-ylidene]-hydrazino}-biphenyl-3-carboxylic acid]",EC50,[1],310 nM
"CC1=NN(c2ccc3c(c2)C(C)CC3)C(=O)/C1=N\Nc1cccc(-c2ccc(C(=O)O)o2)c1O (stereo not drawn) [Example 44, 5-(2-Hydroxy-3-{N′-[3-methyl-1-(3-methyl-indan-5-yl)-5-oxo-1,5-dihydro-pyrazol-4-ylidene]-hydrazino}-phenyl)-furan-2-carboxylic acid]",EC50,[1],50 nM
"CC1=NN(c2ccc3c(c2)C(C)(C)CC3(C)C)C(=O)/C1=N\Nc1cccc(-c2ccc(C(=O)O)o2)c1O [Example 25, 5-(2-Hydroxy-3-{N′-[3-methyl-5-oxo-1-(1,1,3,3-tetramethyl-indan-5-yl)-1,5-dihydro-pyrazol-4-ylidene]-hydrazino}-phenyl)-furan-2-carboxylic acid]",EC50,[1],60 nM
"CC1=NN(c2ccc3c(c2)CCC3)C(=O)/C1=N\Nc1cccc(-c2coc(C(=O)O)c2)c1O [Example 31, 4-{2-Hydroxy-3-[N′-(1-indan-5-yl-3-methyl-5-oxo-1,5-dihydro-pyrazol-4-ylidene)-hydrazino]-phenyl}-furan-2-carboxylic acid]",EC50,[1],27 nM
"CC1=NN(c2ccc(C)c(C)c2)C(=O)/C1=N\Nc1cccc(-c2cccc(C(=O)O)c2)c1O [Eltrombopag, eltrombopag, reference compound]",EC50,[1],299 nM
same,Vd/F,[2],1.53 ± 0.26 L/kg
same,CL/F,[2],3 mL/min/kg
same,AUC,[2],29000 ± 3820 ng·h/mL
same,half-life,[2],6.11 ± 1.04 h
same,MRT,[2],4.63 ± 1.03 h
same,Cmax,[2],8470 ± 950 ng/mL
